Data set [1] deals with α7 nicotinic ACh receptors (Homo sapiens, UniProt P36544). As to the kind of experiment: Electrophysiology at α7, dose-response and co-application with ACh (Dynaflow chip). The data set is classed as cell-based. On the procedure:
Hump currents are defined as the tail current observed during co-application with endogenous ACh following agonist removal.
The channels were prepared as follows: Control solution (channel #2), application ligand itself (channel #3), application of acetylcholine itself (channel #1), and application of mixture of acetylcholine and ligand (channel #4).
Curve 1, FIG. 7B: The bar above the curve indicates time of ACh application. The curve represents current induced by a one second application of 70 μM ACh. The curve illustrates the result from moving the cell from channel #2 to channel #1 for a 1 second application of ACh and back to channel 2 (washout).
Curve 4, FIG. 7B: Curve 4 represents a repetition of Curve 1 at the end of measurements after application of the ligand and ACh/ligand mixture (recovery).
Curve 2, FIG. 7B: The down/up arrows indicates time of application.

For data set [2], the target named is T1, human recombinant α4β2 nicotinic receptors (Homo sapiens, UniProt P17787+P43681).
T1 construct: expressed in transfected cells; host or cells: SH-EP1 clonal cells
As to the kind of experiment: [3H]-nicotine radioligand binding, SH-EP1/human α4β2 membranes. To be noted: read-out: inhibition of [3H]-nicotine binding to human recombinant α4β2 nicotinic receptors. On the procedure: Preparation of membranes from SH-EP1/human α4β2 clonal cells: Cell pellets from 40 150 mm culture dishes were pooled, and homogenized by Polytron (Kinematica GmbH, Switzerland) in 20 milliliters of ice-cold preparative buffer. The homogenate was centrifuged at 48,000 g for 20 minutes at 4° C. The resulting pellet was re-suspended in 20 mL of ice-cold preparative buffer and stored at −20° C.
On the day of the assay, the frozen membranes were thawed and spun at 48,000×g for 20 min. The supernatant was decanted and discarded. The pellet was resuspended in Dulbecco's phosphate buffered saline (PBS, Life Technologies) pH 7.4 and homogenized with the Polytron for 6 seconds. Protein concentrations were determined using a Pierce BCA Protein Assay Kit, with bovine serum albumin as the standard (Pierce Chemical Company, Rockford, Ill.).
Membrane preparations (approximately 50 μg for human and 200-300 μg protein for rat α4β2) were incubated in PBS (50 μL and 100 μL respectively) in the presence of competitor compound (0.01 nM to 100 μM) and 5 nM [^3H]nicotine for 2-3 hours on ice. […] Filters were then counted to determine radioactivity bound to the membranes by liquid scintillation counting (2200CA Tri-Carb LSC, Packard Instruments, 50% efficiency or Wallac Trilux 1450 MicroBeta, 40% efficiency, Perkin Elmer).
Data were expressed as disintegrations per minute (DPMs). […]

A short description of data set [3]: Aqueous solubility of salts (salt screen). Format: physicochemical. To be noted: free base form.

The structures appear in SMILES notation. Read-outs that look alike come from different tables or passages of the source.

α7 nicotinic ACh receptors, sequence (P36544 23-502): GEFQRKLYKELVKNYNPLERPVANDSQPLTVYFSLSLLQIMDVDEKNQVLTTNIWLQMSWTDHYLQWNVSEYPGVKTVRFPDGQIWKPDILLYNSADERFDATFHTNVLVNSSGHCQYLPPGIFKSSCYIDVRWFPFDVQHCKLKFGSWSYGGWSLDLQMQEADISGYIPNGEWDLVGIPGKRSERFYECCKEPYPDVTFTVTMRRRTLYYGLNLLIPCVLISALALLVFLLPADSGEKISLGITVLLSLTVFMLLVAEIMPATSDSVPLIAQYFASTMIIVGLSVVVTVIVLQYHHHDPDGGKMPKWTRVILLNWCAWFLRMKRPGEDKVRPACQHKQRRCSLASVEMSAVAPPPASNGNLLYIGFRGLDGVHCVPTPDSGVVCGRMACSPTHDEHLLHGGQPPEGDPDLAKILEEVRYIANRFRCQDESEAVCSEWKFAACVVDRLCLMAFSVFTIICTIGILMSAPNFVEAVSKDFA
T1 sequence (P43681 29-627 limits assumed): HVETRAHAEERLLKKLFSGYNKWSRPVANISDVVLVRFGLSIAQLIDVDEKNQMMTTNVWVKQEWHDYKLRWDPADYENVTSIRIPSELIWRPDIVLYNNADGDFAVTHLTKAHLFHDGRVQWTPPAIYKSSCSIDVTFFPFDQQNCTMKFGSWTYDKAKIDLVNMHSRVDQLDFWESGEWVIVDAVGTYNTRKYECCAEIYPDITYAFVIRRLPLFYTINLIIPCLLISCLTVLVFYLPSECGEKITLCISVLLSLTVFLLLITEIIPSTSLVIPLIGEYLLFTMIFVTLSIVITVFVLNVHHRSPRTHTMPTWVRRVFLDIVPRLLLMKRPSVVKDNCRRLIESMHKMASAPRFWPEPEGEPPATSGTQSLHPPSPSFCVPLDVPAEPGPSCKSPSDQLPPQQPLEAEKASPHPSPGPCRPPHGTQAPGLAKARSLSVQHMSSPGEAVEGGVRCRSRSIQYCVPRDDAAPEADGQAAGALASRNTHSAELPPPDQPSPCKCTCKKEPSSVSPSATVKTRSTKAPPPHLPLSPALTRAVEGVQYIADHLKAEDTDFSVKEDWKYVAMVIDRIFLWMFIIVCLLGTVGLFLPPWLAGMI
T1 sequence (P17787 26-502): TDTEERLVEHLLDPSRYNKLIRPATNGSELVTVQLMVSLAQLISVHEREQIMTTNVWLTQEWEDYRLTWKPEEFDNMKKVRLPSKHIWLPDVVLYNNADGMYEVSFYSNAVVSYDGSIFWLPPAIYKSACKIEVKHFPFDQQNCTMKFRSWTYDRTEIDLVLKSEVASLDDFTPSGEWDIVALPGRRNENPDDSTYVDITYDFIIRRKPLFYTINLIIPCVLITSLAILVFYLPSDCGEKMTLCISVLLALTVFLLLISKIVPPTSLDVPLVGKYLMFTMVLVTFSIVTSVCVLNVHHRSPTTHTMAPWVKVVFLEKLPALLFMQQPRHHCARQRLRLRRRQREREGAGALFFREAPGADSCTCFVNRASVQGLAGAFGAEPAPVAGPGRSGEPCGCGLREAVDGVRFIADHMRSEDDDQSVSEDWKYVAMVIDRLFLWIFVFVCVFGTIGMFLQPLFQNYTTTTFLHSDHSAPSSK

As a reminder, the EC50 is the concentration that produces a half-maximal response. In general, Emax refers to the size of the effect at its maximum, as opposed to the concentration needed. On to `O=C(N[C@@H]1C2CCN(CC2)[C@H]1Cc1cccnc1)c1cc(F)cc(F)c1` [Compound A], for which, in data set [1], the “type of activity at the α7 NNR” value is given as “partial agonists”. For the same compound, in data set [1] (200 nM ligand, Curve 3 FIG. 7B), the “current on application of the ligand following application of ACh” value is “profound “hump” current”. The “current on application of the ligand alone” value in data set [1] (200 nM, 5 second application, Curve 2 FIG. 7B) is reported as “do not produce robust macro currents”. Also, the “effect on ACh-induced current” value in data set [1] (co-application of compound with ACh, FIG. 6) is given as “enhances ACh-induced current”. The EC50 in data set [1] (co-application with ACh, 100-500 nM range, n=4, FIG. 7C, read-out: EC50 of hump current) came to 0.12 µM; in data set [1] (dose-response, FIG. 5, read-out: EC50 at α7 nicotinic receptors), 1.6 µM. Besides, the “concentration at Emax of hump current” value in data set [1] (co-application with ACh, FIG. 7C) is “approximately 500 nM”. Further, the Emax in data set [1] (dose-response, FIG. 5) was determined as 54.4%. Moreover, in data set [2], the Ki was found to be 1.47 µM. For the same compound, the water solubility result in data set [3] is recorded as “limited water solubility”.

These data come from patent US20110312961A1, “2,5-Disubstituted Morpholine Orexin REceptor Antagonists” (priority 2008, published 2011).
